Measured values taken from US11007136B2, “Cosmetic composition for wrinkle reduction containing gypenoside isolated from Gynostemma pentaphyllum” (CELLTRION INC., priority 2015, dated 2021).

Experiments:
[1] = Titer stability of UL4 and UL5 within formulations (HPLC); type: physicochemical; settings: for content stability Result: over 12 weeks
Protocol: As shown in Formulation Examples 1, 2 and 3, cosmetic compositions of a high viscosity emulsified formulation, a low viscosity emulsified formulation and a solubilized formulation, respectively comprising 0.2% of the Gynostemma pentaphyllum gypenoside fraction, were stored under a condition of 4 CC, 30 CC, 45° C. and sunlight for 12 weeks and changes with passage of time (% compared to an initial content) in the gypenosides UL4 and UL5, which were index ingredients for quantification out of the Gynostemma pentaphyllum gypenoside ingredients, were observed through an HPLC analysis, and results thereof were indicated in Tables 10 to 12.

[2] = test system: human dermal fibroblast neonatal; test: Cytotoxicity test (MTT); type: cell-based; settings: for HDFn Viability: 48 h, % control
Protocol: A human dermal fibroblast neonatal (Cascade Co.) was inoculated into a 24-well microplate (5×10^4 cells/well) by using a medium, in which Dulbeco's Modified Eagle's Medium (DMEM) was supplemented with 10% fetal bovine serum, thus being cultured under a condition of 37° C. and 5% CO2 for 24 hours. Then, the same was replaced with a serum-free DMEM medium and cultured for 24 hours, thus treating the Gynostemma pentaphyllum gypenoside fraction obtained from the Example 1 and the gypenosides UL4 and UL5 isolated therefrom, respectively. After being cultured for 48 hours, an MTT solution was added thereto, thus being cultured for four hours. The medium was removed therefrom and DMSO was added thereto, thus dissolving an MTT formazan. The MTT formazan dissolved in the DMSO was taken out and an optical density thereof was measured at 570 nm, thus being compared to a group without sample treatment and indicated as % control.

[3] = test system: human dermal fibroblast neonatal; test: Procollagen production (collagen synthesis promotion), ELISA kit; type: cell-based; settings: 1 and 5 μg/ml, 48 h, versus positive control NAG at the same concentration, FIG. 3
Protocol: A human dermal fibroblast neonatal (Cascade Co.) was inoculated into a 24-well microplate (5×10^4 cells/well) by using a medium, in which Dulbeco's Modified Eagle's Medium (DMEM) was supplemented with 10% fetal bovine serum, thus being cultured under a condition of 37° C. and 5% CO2 for 24 hours. Then, the same was replaced with a serum-free DMEM medium and cultured for 24 hours, after which an appropriate amount of a sample fluid was treated so that a final concentration of each test compound could reach 1 μg/ml and 5 μg/ml. After being cultured for 48 hours, a cell culture fluid was collected and then an amount of procollagen was measured by using a collagen measurement kit of Takara Company (Takara Shuzo Co., Ltd.). First of all, the collected cell culture fluid was injected into a 96-well microplate, to which a primary collagen antibody was evenly applied, such that an antigen-antibody reaction could occur at 37° C. for three hours. The cell culture fluid was removed from the well and washed four times with PBS. A color causing material was injected into each well, after which a reaction took place at a room temperature for 15 minutes, such that 1 N sulfuric acid solution was added thereto, thus stopping the reaction. An optical density was measured at a wavelength of 450 nm by means of a spectrophotometer. […]

CC(C)=CC1C[C@](O)([C@H]2CC[C@]3(C)[C@@H]2CC[C@@H]2[C@@]4(C=O)CC[C@H](O[C@@H]5OC[C@H](O)[C@H](O[C@@H]6OC[C@@H](O)[C@H](O)[C@H]6O)[C@H]5O[C@@H]5O[C@@H](C)[C@H](O)[C@@H](O)[C@H]5O)C(C)(C)[C@@H]4CC[C@]23C)[C@H](O)O1 (stereo partly drawn) [Gypenoside UL4, (23ξ)-3β,20β,21α-trihydroxy-19-oxo-21,23-epoxy-dammar-24-ene-3-O-[α-L-rhamnopyranosyl (1→2)][β-D-xylopyranosyl (1→3)]-α-L-arabinopyranoside]
content, % compared to an initial content ([1]; High viscosity emulsified formulation, 4° C., 1 week): 101.9%
content, % compared to an initial content ([1]; High viscosity emulsified formulation, 4° C., 2 weeks): 95.9%
content, % compared to an initial content ([1]; High viscosity emulsified formulation, 4° C., 4 weeks): 102%
content, % compared to an initial content ([1]; High viscosity emulsified formulation, 4° C., 8 weeks): 101.4%
content, % compared to an initial content ([1]; High viscosity emulsified formulation, 4° C., 12 weeks): 104.1%
content stability Result ([1]; High viscosity emulsified formulation, 4° C.): Stable
content, % compared to an initial content ([1]; High viscosity emulsified formulation, 30° C., 1 week): 105.2%
content, % compared to an initial content ([1]; High viscosity emulsified formulation, 30° C., 2 weeks): 103.1%
content, % compared to an initial content ([1]; High viscosity emulsified formulation, 30° C., 4 weeks): 104.4%
content, % compared to an initial content ([1]; High viscosity emulsified formulation, 30° C., 8 weeks): 105.7%
content, % compared to an initial content ([1]; High viscosity emulsified formulation, 30° C., 12 weeks): 108.2%
content stability Result ([1]; High viscosity emulsified formulation, 30° C.): Stable
content, % compared to an initial content ([1]; High viscosity emulsified formulation, 45° C., 1 week): 105.3%
content, % compared to an initial content ([1]; High viscosity emulsified formulation, 45° C., 2 weeks): 108.2%
content, % compared to an initial content ([1]; High viscosity emulsified formulation, 45° C., 4 weeks): 107.6%
content, % compared to an initial content ([1]; High viscosity emulsified formulation, 45° C., 8 weeks): 108.1%
content, % compared to an initial content ([1]; High viscosity emulsified formulation, 45° C., 12 weeks): 107.1%
content stability Result ([1]; High viscosity emulsified formulation, 45° C.): Stable
content, % compared to an initial content ([1]; High viscosity emulsified formulation, Sunlight, 1 week): 102.4%
content, % compared to an initial content ([1]; High viscosity emulsified formulation, Sunlight, 2 weeks): 99.8%
content, % compared to an initial content ([1]; High viscosity emulsified formulation, Sunlight, 4 weeks): 101.2%
content, % compared to an initial content ([1]; High viscosity emulsified formulation, Sunlight, 8 weeks): 99.4%
content, % compared to an initial content ([1]; High viscosity emulsified formulation, Sunlight, 12 weeks): 103.6%
content stability Result ([1]; High viscosity emulsified formulation, Sunlight): Stable
content, % compared to an initial content ([1]; Low viscosity emulsified formulation, 4° C., 1 week): 100.1%
content, % compared to an initial content ([1]; Low viscosity emulsified formulation, 4° C., 2 weeks): 102.4%
content, % compared to an initial content ([1]; Low viscosity emulsified formulation, 4° C., 4 weeks): 101.2%
content, % compared to an initial content ([1]; Low viscosity emulsified formulation, 4° C., 8 weeks): 94.9%
content, % compared to an initial content ([1]; Low viscosity emulsified formulation, 4° C., 12 weeks): 94.1%
content stability Result ([1]; Low viscosity emulsified formulation, 4° C.): Stable
content, % compared to an initial content ([1]; Low viscosity emulsified formulation, 30° C., 1 week): 105.0%
content, % compared to an initial content ([1]; Low viscosity emulsified formulation, 30° C., 2 weeks): 101.8%
content, % compared to an initial content ([1]; Low viscosity emulsified formulation, 30° C., 4 weeks): 101.6%
content, % compared to an initial content ([1]; Low viscosity emulsified formulation, 30° C., 8 weeks): 104.1%
content, % compared to an initial content ([1]; Low viscosity emulsified formulation, 30° C., 12 weeks): 105.2%
content stability Result ([1]; Low viscosity emulsified formulation, 30° C.): Stable
content, % compared to an initial content ([1]; Low viscosity emulsified formulation, 45° C., 1 week): 101.9%
content, % compared to an initial content ([1]; Low viscosity emulsified formulation, 45° C., 2 weeks): 106.2%
content, % compared to an initial content ([1]; Low viscosity emulsified formulation, 45° C., 4 weeks): 105.9%
content, % compared to an initial content ([1]; Low viscosity emulsified formulation, 45° C., 8 weeks): 95.6%
content, % compared to an initial content ([1]; Low viscosity emulsified formulation, 45° C., 12 weeks): 99.3%
content stability Result ([1]; Low viscosity emulsified formulation, 45° C.): Stable
content, % compared to an initial content ([1]; Low viscosity emulsified formulation, Sunlight, 1 week): 96.3%
content, % compared to an initial content ([1]; Low viscosity emulsified formulation, Sunlight, 2 weeks): 99.5%
content, % compared to an initial content ([1]; Low viscosity emulsified formulation, Sunlight, 4 weeks): 100.5%
content, % compared to an initial content ([1]; Low viscosity emulsified formulation, Sunlight, 8 weeks): 99.8%
content, % compared to an initial content ([1]; Low viscosity emulsified formulation, Sunlight, 12 weeks): 102%
content stability Result ([1]; Low viscosity emulsified formulation, Sunlight): Stable
content, % compared to an initial content ([1]; Solubilized formulation, 4° C., 1 week): 98.8%
content, % compared to an initial content ([1]; Solubilized formulation, 4° C., 2 weeks): 91.9%
content, % compared to an initial content ([1]; Solubilized formulation, 4° C., 4 weeks): 98.7%
content, % compared to an initial content ([1]; Solubilized formulation, 4° C., 8 weeks): 97.6%
content, % compared to an initial content ([1]; Solubilized formulation, 4° C., 12 weeks): 99.5%
content stability Result ([1]; Solubilized formulation, 4° C.): Stable
content, % compared to an initial content ([1]; Solubilized formulation, 30° C., 1 week): 100.0%
content, % compared to an initial content ([1]; Solubilized formulation, 30° C., 2 weeks): 103.2%
content, % compared to an initial content ([1]; Solubilized formulation, 30° C., 4 weeks): 102.7%
content, % compared to an initial content ([1]; Solubilized formulation, 30° C., 8 weeks): 98.5%
content, % compared to an initial content ([1]; Solubilized formulation, 30° C., 12 weeks): 104.5%
content stability Result ([1]; Solubilized formulation, 30° C.): Stable
content, % compared to an initial content ([1]; Solubilized formulation, 45° C., 1 week): 102.8%
content, % compared to an initial content ([1]; Solubilized formulation, 45° C., 2 weeks): 101.6%
content, % compared to an initial content ([1]; Solubilized formulation, 45° C., 4 weeks): 94.2%
content, % compared to an initial content ([1]; Solubilized formulation, 45° C., 8 weeks): 97.2%
content, % compared to an initial content ([1]; Solubilized formulation, 45° C., 12 weeks): 94.9%
content stability Result ([1]; Solubilized formulation, 45° C.): Stable
content, % compared to an initial content ([1]; Solubilized formulation, Sunlight, 1 week): 98.8%
content, % compared to an initial content ([1]; Solubilized formulation, Sunlight, 2 weeks): 94.8%
content, % compared to an initial content ([1]; Solubilized formulation, Sunlight, 4 weeks): 98.4%
content, % compared to an initial content ([1]; Solubilized formulation, Sunlight, 8 weeks): 98%
content, % compared to an initial content ([1]; Solubilized formulation, Sunlight, 12 weeks): 94.6%
content stability Result ([1]; Solubilized formulation, Sunlight): Stable
HDFn Viability ([2]; 5 ug/ml): 98%
HDFn Viability ([2]; 10 ug/ml): 100%
HDFn Viability ([2]; 50 ug/ml): 106%
cytotoxicity ([2]; at concentrations promoting procollagen synthesis): did not show any cytotoxicity
procollagen-producing effect compared with NAG [3]: the same or larger amount of procollagen
